Several values for one entry are separate records, joined by “and”; a condition that tells them apart may be missing. Identical values can stand only once. ± gives the expanded uncertainty stated by the source.
Conditions: 298.15 K; Liquid

vapor or sublimation pressure | SMILES
12.7 ± 0.44 kPa | c1ccccc1 [benzene]
16.97 ± 0.071 kPa and 16.96 ± 0.55 kPa | CO [methanol]
2.786 ± 0.19 kPa | CCCO [propan-1-ol]
7.876 ± 0.32 kPa | CCO [ethanol]

Same assay, conditions: 303.15 K; Liquid

vapor or sublimation pressure | SMILES
15.92 ± 0.52 kPa | c1ccccc1 [benzene]
21.88 ± 0.086 kPa and 21.88 ± 0.67 kPa | CO [methanol]
3.826 ± 0.22 kPa | CCCO [propan-1-ol]
10.47 ± 0.38 kPa | CCO [ethanol]

Same assay, conditions: 308.15 K; Liquid

vapor or sublimation pressure | SMILES
19.66 ± 0.61 kPa | c1ccccc1 [benzene]
27.96 ± 0.11 kPa and 27.96 ± 0.82 kPa | CO [methanol]
5.199 ± 0.25 kPa | CCCO [propan-1-ol]
13.77 ± 0.47 kPa | CCO [ethanol]

Same assay, conditions: 313.15 K; Liquid

vapor or sublimation pressure | SMILES
24.33 ± 0.73 kPa | c1ccccc1 [benzene]
35.44 ± 0.13 kPa and 35.45 ± 1 kPa | CO [methanol]
6.986 ± 0.3 kPa | CCCO [propan-1-ol]
17.93 ± 0.57 kPa | CCO [ethanol]

Same assay, conditions: 318.15 K; Liquid

vapor or sublimation pressure [kPa] | SMILES
44.54 ± 0.16 | CO [methanol]

Same assay, conditions: 323.15 K; Liquid

vapor or sublimation pressure [kPa] | SMILES
55.58 ± 0.19 | CO [methanol]

From the NIST ThermoML archive (doi:10.1016/j.fluid.2005.07.008)
